Where two headings read alike, the source gives them in different places.
What was measured:
[1] = known comparison photoinitiators; cited from earlier work
[2] = Photoinitiator activity by photo-DSC
Description: The activity of the photoinitiators was measured by means of photo-DSC (Differential Scanning Calorimetry) measurements on a DSC-50 device from Shimadzu, wherein the samples were irradiated alternatively with different dental lamps (Astalis 3: halogen lamp, wavelength range 400-500 nm, intensity 530 mW/cm^2; Bluephase C8: LED, wavelength range 430-490 nm, intensity 1100 mW/cm^2; Ivoclar Vivadent AG). The activity is characterized by the time of peak maximum (tmax), the polymerization rate (RP) which corresponds to the peak height, and the double bond conversion (DBC). The respective photoinitiators were dissolved in a resin mixture of D3MA:UDMA:bis-GMA=1:1:1 and then measured in an aluminum crucible by means of DSC. […]

[3] = Absorption maximum (UV-VIS); format: physicochemical; details: own acylgermanium photoinitiators
[4] = Astralis 3 lamp (400-500 nm), 0.022 mmol PI per gram of resin
[5] = Bluephase C8 lamp (430-490 nm), 0.022 mmol PI per gram of resin

For `CC12CCC(C(=O)C1=O)C2(C)C` (centres unmarked) [camphorquinone], the absorption maximum [1] is given as 468 nm.
In the case of `Cc1cc(C)c(C(=O)P(=O)(C(=O)c2c(C)cc(C)cc2C)c2ccccc2)c(C)c1` [Irg 819, bis(2,4,6-trimethylbenzoyl)phenylphosphine oxide, reference compound], the absorption maximum [1] is listed as 397 nm, the DBC [2, 4] is listed as 59% and the “Rp × 10^−3” value [2, 4] is listed as 67.5 mol/(l × s). The tmax [2, 4] was 11 s, the DBC [2, 5] was 45% and the “Rp × 10^−3” value [2, 5] was 43.5 mol/(l × s). The tmax [2, 5] was 17 s, the DBC ([2]; PI concentration 0.0014 mmol/g) was 42% and the “Rp × 10^−3” value ([2]; PI concentration 0.0014 mmol/g) was 30.4 mol/(l × s). The tmax ([2]; PI concentration 0.0014 mmol/g) was 23 s, the DBC ([2]; PI concentration 0.0055 mmol/g) was 48% and the “Rp × 10^−3” value ([2]; PI concentration 0.0055 mmol/g) was 48.3 mol/(l × s). For the same molecule, the tmax ([2]; PI concentration 0.0055 mmol/g) was 14 s.
For `[CH3][Ge]([CH3])([CH3])[C](=O)c1ccccc1` [Mono-AG, benzoyltrimethylgermanium], the absorption maximum [3] was 411.5 nm, the DBC [2, 4] was 56% and the “Rp × 10^−3” value [2, 4] was 51.0 mol/(l × s). For the same molecule, the tmax [2, 4] was 16 s, the DBC [2, 5] was 49% and the “Rp × 10^−3” value [2, 5] was 48.3 mol/(l × s). For the same molecule, the tmax [2, 5] was 16 s, the DBC ([2]; PI concentration 0.0014 mmol/g) was 30% and the “Rp × 10^−3” value ([2]; PI concentration 0.0014 mmol/g) was 16.4 mol/(l × s). The tmax ([2]; PI concentration 0.0014 mmol/g) was 52 s, the DBC ([2]; PI concentration 0.0055 mmol/g) was 48% and the “Rp × 10^−3” value ([2]; PI concentration 0.0055 mmol/g) was 36.2 mol/(l × s). It also gave a tmax ([2]; PI concentration 0.0055 mmol/g) of 24 s.
For `C[CH2][Ge]([CH2]C)([C](=O)c1ccccc1)[C](=O)c1ccccc1` [Bis-AG, bisbenzoyldiethylgermanium], the absorption maximum [3] was 418.5 nm, the “reactivity compared with camphorquinone/amine” value ([2]; 15-fold dilution of the initiator) was “comparable with camphorquinone/amine” and the DBC [2, 4] was 84%. The “Rp × 10^−3” value [2, 4] was 99.2 mol/(l × s), the tmax [2, 4] was 7.8 s and the DBC [2, 5] was 72%. For the same molecule, the “Rp × 10^−3” value [2, 5] was 98.5 mol/(l × s), the tmax [2, 5] was 7.8 s and the “curing time compared with campherquinone/amine” value ([2]; D3MA:UDMA:bis-GMA=1:1:1) was “halved”. For the same molecule, the DBC ([2]; PI concentration 0.0014 mmol/g) was 56%, the “Rp × 10^−3” value ([2]; PI concentration 0.0014 mmol/g) was 61.0 mol/(l × s) and the tmax ([2]; PI concentration 0.0014 mmol/g) was 12 s. The DBC ([2]; PI concentration 0.0055 mmol/g) was 66%, the “Rp × 10^−3” value ([2]; PI concentration 0.0055 mmol/g) was 85.6 mol/(l × s) and the tmax ([2]; PI concentration 0.0055 mmol/g) was 9 s. The “polymerization rate (Rp) relative to camphorquinone in combination with an amine accelerator” value ([2]; same formulation, D3MA:UDMA:bis-GMA=1:1:1) was “almost double”.
For `O=[C](c1ccccc1)[Ge]1([C](=O)c2ccccc2)[CH2]CCC[CH2]1` [Example 9, 1,1-bisbenzoyl-germinane], the absorption maximum [3] was 418.1 nm.

— patent US7605190B2, “Polymerizable compositions with acylgermanium compounds” (Ivoclar Vivadent AG, priority 2006, dated 2009)
